Assays:
Format in all cases: in vivo
[1] = tested on: root-knot nematode, Meloidogyne incognita var. acrita; test: Nematocide Test; design: key: 1: severe galling, equal to untreated plants; 2: moderate galling; 3: light galling; 4: very light galling; 5: no galling, perfect control; settings: 3.33 m.g. of test compound per jar; cucumber, approximately 3 weeks
Protocol: The test organism used was the infective migratory larvae of the root-knot nematode, Meloidogyne incognita var. acrita, reared in the greenhouse on roots of cucumber plants. Infected plants were removed from the culture, and the roots are chopped very finely. A small amount of this inoculum was added to a pint jar containing approximately 180 cc. of soil. The jars were capped and incubated for one week at room temperature. During this period eggs of the nematode were hatched, and the larval forms migrated into the soil.
Ten ml. of the test formulation were added to each of the two jars for each dosage tested. Following the addition of chemical, the jars were capped, and the contents thoroughly mixed on a ball mill for 5 minutes.
The test compounds were formulated by a standard procedure of solution in acetone addition of an emulsifier, and dilution with water. Primary screening tests were conducted at 3.33 m.g. of the test compound per jar.
The jars were left capped at room temperature for a period of 48 hours, and the contents then transferred to 3 inch pots. Subsequently, the pots were seeded to cucumber as an indicator crop and placed in the greenhouse where they were cared for in the normal fashion for approximately 3 weeks.
The cucumber plants were then taken from the pots, the soil removed from the roots, and the amount of galling visually rated.
In the test for activity against nematodes activity was rated as follows: […]

[2] = tested on: rat; test: peroral toxicity to mammals (rat); settings: dose required to achieve mortality rate of 50 percent
Protocol: (§1) Certain of these compositions were also evaluated to determine their peroral toxicity to mammals. The animal selected for this experiment was the rat. The test results obtained are expressed in terms of the number of milligrams of compositions per kilogram of weight of the animal required to achieve a mortality rate of 50 percent (LD50).

[3] = peroral toxicity to mammals (rat); settings: in vivo, po, dose required to achieve mortality rate of 50 percent, read-out: A.O. RAT LD50
Protocol: as §1

1-(2-Cyanoethylthio)acetaldehyde 0-[N-methyl-N-(2,4-dimethyl-3-oxo-2-pentanethiosulfenyl)carbamoyl]oxime
NEMATODES activity rating (galling) [1]: 5

4-[[0-[N-Methyl-N-(2,4-dimethyl-3-oxo-2-pentanethiosulfenyl)carbamoyl]oximino]]-5-methyl-1,3-oxathiolane
A.O. RAT LD50 [2]: 8 mg/kg
NEMATODES activity rating (galling) [1]: 3

CC(=NOC(=O)N(C)SSC(C)(C)C(=O)C(C)C)SC(C)C [1-Isopropylthioacetaldehyde 0-[N-methyl-N-(2,4-dimethyl-3-oxo-2-pentanethiosulfenyl)carbamoyl]oxime]
LD50 [3]: 42 mg/kg
NEMATODES activity rating (galling) [1]: 4

CSC(C)=NOC(=O)N(C)SSC(C)(C)C(=O)C(C)C [1-Methylthioacetaldehyde 0-[N-methyl-N-(2,4-dimethyl-3-oxo-2-pentanethiosulfenyl)carbamoyl]oxime]
LD50 [3]: 226 mg/kg
NEMATODES activity rating (galling) [1]: 3

CSC(C)=NOC(=O)N(C)SC(C)(C)C(=O)C(C)C [1-Methylthioacetaldehyde O-[N-methyl-N-(2,4-dimethyl-3-oxo-2-pentanesulfenyl)carbamoyl]oxime]
LD50 [3]: 134 mg/kg
NEMATODES activity rating (galling) [1]: 1

CSC(C)=NOC(=O)N(C)SSC(C)(C)C(=O)c1ccccc1 [1-Methylthioacetaldehyde O-[N-methyl-N-(2-benzoyl-2-propanethiosulfenyl)carbamoyl]oxime]
LD50 [3]: 226 mg/kg

CC(=NOC(=O)N(C)SC(C)(C)C(=O)C(C)C)SC(C)C [1Isopropylthioacetaldehyde O-[N-methyl-N-(2,4-dimethyl-3-oxo-2-pentanesulfenyl)carbamoyl]oxime]
LD50 [3]: 37 mg/kg
NEMATODES activity rating (galling) [1]: 3

CSC(C)(C)C=NOC(=O)N(C)SC(C)(C)C(=O)C(C)C [2-Methylthio-2-methylpropionaldehyde O-[N-methyl-N-(2,4-dimethyl-3-oxo-2-pentanesulfenyl)carbamoyl]oxmine]
NEMATODES activity rating (galling) [1]: 3

CC(C)C(=O)C(C)(C)SN(C)C(=O)ON=CC(C)(C)[N+](=O)[O-] [2-Nitro-2-methylpropionaldehyde O-[N-methyl-N-(2,4-dimethyl-3-oxo-2-pentanesulfenyl)carbamoyl]oxime]
LD50 [3]: 12 mg/kg

CC(C)C(=O)C(C)(C)SN(C)C(=O)ON=C1SC(C)(C)C(=O)N1C [2-[O-[N-methyl-(2,4-dimethyl-3-oxo-2-pentanesulfenyl)carbamoyl]oximino]-3,5,5-trimethylthiazolidin-4-one]
LD50 [3]: 226 mg/kg

CC(C)C(=O)C(C)(C)SN(C)C(=O)ON=C1CSCCS1 [2-[[O-[N-methyl-N-(2,4-dimethyl-3-oxo-2-pentanesulfenyl)carbamoyl]oximino]]-1,4-dithiane]
NEMATODES activity rating (galling) [1]: 3

CN(SC(C)(C)C(=O)c1ccccc1)C(=O)ON=C1SC(C)(C)C(=O)N1C [2-[[O-[N-methyl-N-(2-benzoyl-2-propanesulfenyl)carbamoyl]oximino]]-3,5,5-trimethylthiazolidin-4-one]
NEMATODES activity rating (galling) [1]: 3

CC(C)C(=O)C(C)(C)SN(C)C(=O)ON=C1SCOC1C (centres unmarked) [4-[[O-[N-methyl-N-(2,4-dimethyl-3-oxo-2-pentanesulfenyl)carbamoyl]oximino]]-5-methyl-1,3-oxathiolane]
LD50 [3]: 16 mg/kg

CC(C)C(=O)C(C)(C)SN(C)C(=O)Oc1cccc2c1OC(C)(C)C2 [7-[N-methyl-N-(2,4-dimethyl-3-oxo-2-pentanesulfenyl)carbamoyloxy]-2,2-dimethyl-2,3-dihydrobenzofuran]
LD50 [3]: 31 mg/kg

CC(C)C(=O)C(C)(C)SN(C)C(=O)ON=C(C#N)c1ccccc1 [α-Cyanobenzaldehyde 0-[N-methyl-N-(2,4-dimethyl-3-oxo-2-pentanesulfenyl)carbamoyl]oxime]
NEMATODES activity rating (galling) [1]: 3
